Measured values from US9510521B2, “Use of abscisic acid to alter sensory characteristics of red grapes and wine” (Valent BioSciences Corporation, priority 2007, dated 2016).

Columns and labels:
[1] = tested on: Cabernet Sauvignon grapes; test: Sensory panel rating of Cabernet Sauvignon wine from S-ABA treatment; type: in vivo, grape; settings: 1-5 scale, 1 = low/short, 5 = high/long
Procedure: S-ABA (200 ppm) was applied by foliar spray to Cabernet Sauvignon grapes when sugar levels were approximately 11 Be using a standard vineyard airblast sprayer at approximately 2000 L/ha. The spray mix contained the surfactant/wetter Agral at 10 ml/100 L. Wine was prepared from the treated and untreated grapes.

Shiraz grapes [2] = test: Sensory panel of 6 assessors, Shiraz wine, foliar S-ABA at veraison; type: in vivo, grape; settings: 200 ppm foliar spray at veraison
Procedure: S-ABA (200 ppm) was applied by foliar spray at veraison to commercially grown Shiraz grapes through standard agricultural spray equipment on 12 Jan. 2007. Kendeen 20 (Tween 20) was added to the spray mix at 50 ml/100 L. Reported results are means of 3 replicates. Winemaking followed a standard small lot fermentation protocol with each replicate wine being made from 50 kg of harvested grapes.

Shiraz grapes [3] = test: Sensory panel of 6 assessors, Shiraz wine, drip irrigation S-ABA; type: in vivo, grape; settings: 0.4 grams per vine via drip irrigation
Procedure: S-ABA (0.4 grams per vine) was applied to commercially grown Shiraz grapes through the drip irrigation system at approximately 3 weeks prior to initiation of veraison. No surfactant was added to the irrigation water. Results reported are means of 3 replicates. Winemaking followed a standard small lot fermentation protocol with each replicate wine being made from 50 kg of harvested grapes.
Table 5 illustrates that S-ABA increased anthocyanin and phenolics of grape/juice at crush and wine color density and total phenolics and reduced wine hue. S-ABA had no effect on sugar, pH, or total acidity of grapes/juice at crush or on alcohol or pH of wine.

Shiraz grapes [4] = test: Sensory profile of Shiraz wine from S-ABA-treated fruit, 10 experienced sensory assessors; type: in vivo, grape; settings: 200 ppm foliar spray, 10 assessors
Procedure: (§1) S-ABA (200 ppm) was applied by foliar spray using a standard vineyard airblast sprayer at 2000 L/ha to commercially grown Shiraz grapes approximately 3 weeks prior to initiation of veraison. The spray mix contained the surfactant/wetter Agral at 10 ml/100 L. Results reported are means of 4 replicates (grapes) and 3 replicates (wines) per treatment. Winemaking followed a standard small lot fermentation protocol with each replicate wine being made from 50 kg of harvested grapes.
Using a nine-point hedonic scale rating (dislike=1 to like=9) the sensors judged wine from the S-ABA treatment higher than the untreated (6.2 vs. 5.0, respectively) and thus a technically better wine.

Shiraz grapes [5] = test: Foliar S-ABA on Shiraz grapes about 3 weeks before veraison: grape quality at harvest and wine quality; type: in vivo; settings: 200 ppm foliar spray approx. 3 weeks prior to veraison
Procedure: as §1
However, at-harvest grape anthocyanin and wine color density and total phenolics are increased by S-ABA.

(S)-5-(1-hydroxy-2,6,6,-trimethyl-4-oxo-2-cyclohexen-1-yl)-3-methyl-(2Z,4E)-pentadienoic acid [S-ABA]
Body/fullness [1]: 1.7
Flavor intensity [1]: 2.7
Sensory panel of 6 assessors (Shiraz grapes [2]): more intense fruit, spice and herbaceous flavors and more tannin
Sensory panel of 6 assessors (Shiraz grapes [3]): more intense fruit and was less acidic
Aroma (Shiraz grapes [4]; Shiraz wine sensory profile): more intense berry aroma
Color (Shiraz grapes [4]; Shiraz wine sensory profile): Increased intensity
Taste (Shiraz grapes [4]; Shiraz wine sensory profile): more fruity, more acidic taste
Hedonic scale (1-dislike, 9 like) (Shiraz grapes [4]; Shiraz wine, nine-point hedonic scale): 6.2
Wine hue (Shiraz grapes [5]): 0.56
